# Measured values taken from patent US9796710B2, “Dihydropyrrolopyridine inhibitors of ROR-gamma” (Vitae Pharmaceuticals, Inc., priority 2014, dated 2017).
# Like-named read-outs stand apart in the source and are kept apart here.
# Legend:
# [1] = target: recombinant RORγ Ligand Binding Domain (LBD) protein (Homo sapiens (Human), UniProt P51449); assay: Radio-Ligand RORγ Binding Assay (Assay 1); details: read-out: RORγ Binding Ki Range* (nM) (Assay 1)
# Experimental: Radio-Ligand ROR ? Binding Assay (Assay 1)
# The plate was shaken at 700 rpm for 20 min and incubated for 10 min at rt, after which 40 μL of poly-Lys YSi SPA beads (PerkinElmer, Cat. # RPNQ0010) were added to achieve 50 μg of the beads per well. The plate was incubated on an orbital shaker for 20 min and then for 10 min without agitation at rt. SPA signal for tritium beta radiation was registered on PerkinElmer Microbeta plate reader. […] The percent inhibition vs. concentration data were fit into a four-parameter model, and IC50 values were calculated from the fit as the concentrations corresponding to the inflection points on the dose-response curves.
# [2] = target: full-length RORγt in Jurkat cells (Homo sapiens (Human), UniProt P51449)
# Experimental: ROR ? t 5×RORE Assay in Jurkat Cells (Assay 2)
# Compounds of the present invention were tested for ROR ? inverse agonist activity in a cell-based, transcriptional activity assay. […] Luciferase activity in the conditioned supernatants was determined with NanoGlo® assay reagents (Promega, Cat.# N1130).
# [3] = target: hERG potassium ion channel (Homo sapiens (Human), UniProt Q12809); assay: hERG Assay (Assay 4); type: cell-based; details: HEK293 cells stably transfected with hERG cDNA, pH 7.4, Compound at 3 μM, patch clamp, HEK 293 cells
# Experimental: Compounds of the invention were tested in vitro against the hERG (human ether-a-go-go-related gene) potassium ion channel (a surrogate for IKr, the rapidly activating delayed rectifier cardiac potassium ion channel).
# The buffer was HEPES-buffered physiological saline (HB-PS) solution composed of: 137 mM NaCl, 4.0 mM KCl, 1.8 mM CaCl2, 1 mM MgCl2, 10 mM HEPES, 10 mM glucose, pH adjusted to 7.4 with NaOH, and 0.3% DMSO. Chemicals used in solution preparation were purchased from Sigma-Aldrich (St. Louis, Mo.), unless otherwise noted, and were of ACS reagent grade purity or higher.
# HEK (human embryonic kidney) 293 cells were stably transfected with hERG cDNA.
# For the patch clamp experiment, onset and steady state inhibition of hERG potassium current was measured using a pulse pattern with fixed amplitudes (depolarization: +20 mV for 2 s; repolarization: −50 mV for 2 s) repeated at 10 s intervals from a holding potential of −80 mV. Peak tail current was measured during the 2 s step to −50 mV. A steady state was maintained for at least 30 seconds before applying compound or positive control (cisapride). Peak tail currents were measured until a new steady state was achieved.
# Data acquisition and analyses were performed using the suite of pCLAMP® (ver. 8.2) programs (MDS Analytical Technologies, Sunnyvale, Calif.). Steady state was defined by the limiting constant rate of change with time (linear time dependence). The steady state before and after each compound application was used to calculate the percentage of current inhibited at each concentration. Concentration-response data were fit to an equation of the following form: % Inhibition={1−1/[1+([Test]/IC50)N]}*100
# where [Test] was the compound concentration, IC50 was the compound concentration at half-maximal inhibition, N was the Hill coefficient, and % Inhibition was the percentage of current inhibited at each compound concentration. Nonlinear least squares fits were solved with the Solver add-in for Excel 2003 (Microsoft, WA) and the IC50 was calculated.
# IL-17A production = assay: Human Whole Blood Assay (Assay 3); type: cell-based; details: IL-17A secretion, CytoStim, 48 h, 50% blood/media
# Experimental: Human Whole Blood Assay (Assay 3)
# Compounds of the invention were tested in the human whole blood assay to measure their effects on IL-17A production as determined by cytokine secretion into 50% blood/media supernatant. Mixtures of sodium heparinized whole blood (isolated from healthy human donors) and the T cell activator CytoStim, in the presence or absence of compound, were plated in sterilized, tissue culture-treated 24-well plates. Specifically, the mixtures in each well were as follows: (1) 500 μL of whole blood, (2) 250 μL of compound diluted into RPMI-1640 media containing 10% HyClone™ FCS (Thermo Fisher Scientific, Waltham, Mass.), Gibco® Pen/Strep and Gibco® NEAA (Life Technologies, Grand Island, N.Y.), and (3) 250 μL of CytoStim (Miltenyi Biotech, Germany) diluted to a final concentration of 10 μL/mL in complete cell culture medium.
# IL-17A cytokine expression was determined using 25 μL of the transferred supernatant diluted with 25 μL of Diluent 43 from the Human IL-17A V-PLEX™ kit (cat. # K151RFD-4, Meso Scale Discovery, Rockville, Md.). The assay was performed according to the manufacturer's instructions using included reagents. The IL-17A V-PLEX™ plates were read using the Meso Scale Discovery Imager (Model 1200).
# [4] = cell-free competition with 25-hydroxy [26,27-3H]-cholesterol
# Sequence of recombinant RORγ Ligand Binding Domain (LBD) protein (P51449 269-508): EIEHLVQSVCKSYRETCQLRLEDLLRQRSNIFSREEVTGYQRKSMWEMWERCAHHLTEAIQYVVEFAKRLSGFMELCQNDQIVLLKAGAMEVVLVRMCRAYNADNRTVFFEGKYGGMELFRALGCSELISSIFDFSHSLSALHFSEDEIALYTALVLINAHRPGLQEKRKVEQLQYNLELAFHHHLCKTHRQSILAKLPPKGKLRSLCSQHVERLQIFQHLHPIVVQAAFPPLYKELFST
# Sequence of hERG potassium ion channel (Q12809 whole entry): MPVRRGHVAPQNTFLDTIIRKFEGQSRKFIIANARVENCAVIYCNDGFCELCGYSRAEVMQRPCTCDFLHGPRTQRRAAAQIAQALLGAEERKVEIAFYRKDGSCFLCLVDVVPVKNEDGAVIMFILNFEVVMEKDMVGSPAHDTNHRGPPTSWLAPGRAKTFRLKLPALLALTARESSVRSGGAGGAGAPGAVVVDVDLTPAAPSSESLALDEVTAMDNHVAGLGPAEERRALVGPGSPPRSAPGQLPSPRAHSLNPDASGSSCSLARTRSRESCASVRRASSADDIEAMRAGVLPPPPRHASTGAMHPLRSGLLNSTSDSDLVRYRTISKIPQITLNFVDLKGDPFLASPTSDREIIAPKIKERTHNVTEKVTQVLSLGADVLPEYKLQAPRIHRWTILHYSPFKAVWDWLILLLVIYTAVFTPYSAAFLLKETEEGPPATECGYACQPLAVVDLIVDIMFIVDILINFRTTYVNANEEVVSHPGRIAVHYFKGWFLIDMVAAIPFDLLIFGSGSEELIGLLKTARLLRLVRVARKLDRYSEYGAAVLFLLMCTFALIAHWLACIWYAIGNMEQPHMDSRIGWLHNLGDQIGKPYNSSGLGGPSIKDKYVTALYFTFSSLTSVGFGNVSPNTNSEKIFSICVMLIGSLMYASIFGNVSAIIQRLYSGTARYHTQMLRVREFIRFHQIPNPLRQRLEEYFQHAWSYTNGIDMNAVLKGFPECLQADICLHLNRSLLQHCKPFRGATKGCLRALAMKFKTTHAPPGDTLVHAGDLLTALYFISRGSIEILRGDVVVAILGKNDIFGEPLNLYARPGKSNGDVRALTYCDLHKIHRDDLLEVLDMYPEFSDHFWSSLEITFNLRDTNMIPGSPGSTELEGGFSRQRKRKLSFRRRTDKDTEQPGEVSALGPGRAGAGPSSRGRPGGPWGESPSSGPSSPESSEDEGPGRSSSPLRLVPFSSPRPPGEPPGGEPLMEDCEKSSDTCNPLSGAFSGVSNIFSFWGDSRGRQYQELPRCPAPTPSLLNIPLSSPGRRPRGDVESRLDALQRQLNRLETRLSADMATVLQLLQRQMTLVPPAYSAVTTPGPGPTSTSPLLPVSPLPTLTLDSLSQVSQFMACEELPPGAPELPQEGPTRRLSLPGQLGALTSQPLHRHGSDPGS
# Sequence of full-length RORγt in Jurkat cells (P51449 other isoform, or with tags, fused parts or gaps): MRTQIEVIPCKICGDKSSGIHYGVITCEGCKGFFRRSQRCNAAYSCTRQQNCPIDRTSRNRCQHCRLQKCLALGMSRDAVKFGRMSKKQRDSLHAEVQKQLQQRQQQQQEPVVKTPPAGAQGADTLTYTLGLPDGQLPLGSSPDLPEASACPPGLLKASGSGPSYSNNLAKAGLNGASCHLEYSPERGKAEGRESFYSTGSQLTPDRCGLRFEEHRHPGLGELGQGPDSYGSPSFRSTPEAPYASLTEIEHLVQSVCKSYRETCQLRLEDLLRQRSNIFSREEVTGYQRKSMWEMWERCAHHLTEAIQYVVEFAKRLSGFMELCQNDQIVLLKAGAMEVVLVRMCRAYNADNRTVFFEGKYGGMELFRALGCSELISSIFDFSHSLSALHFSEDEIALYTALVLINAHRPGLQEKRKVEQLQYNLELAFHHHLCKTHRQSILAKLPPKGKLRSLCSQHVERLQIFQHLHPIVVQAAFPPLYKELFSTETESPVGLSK
SMILES,"Ki [1, 4] [nM]",IC50 [2] [nM],further results
"CC[C@H]1c2ncc(C(=O)N[C@@H](CO)c3ccc(S(=O)(=O)CC)cc3)cc2CN1C[C@H]1CC[C@H](C(F)(F)F)OC1 (single isomer, unassigned) [Compound 10]",< 100,< 100,
"CC[C@H]1c2ncc(C(=O)N[C@@H](CO)c3ccc(S(=O)(=O)CC)cc3)cc2CN1C[C@@H]1CC[C@@H](C(F)(F)F)OC1 (single isomer, unassigned) [Compound 11]",< 100,< 100,
"CCS(=O)(=O)c1ccc([C@H](CO)NC(=O)c2cnc3c(c2)CN(C[C@H]2CC[C@H](C(F)(F)F)CO2)[C@H]3C(C)C)cc1 (single isomer, unassigned) [Compound 15]",< 100,< 100,
"CCS(=O)(=O)c1ccc([C@H](CO)NC(=O)c2cnc3c(c2)CN(C[C@@H]2CC[C@H](C(F)(F)F)CO2)[C@H]3C(C)C)cc1 (single isomer, unassigned) [Compound 18]",< 100,> 1000,
"CCS(=O)(=O)c1ccc([C@H](CO)NC(=O)c2cnc3c(c2)CN(C[C@H]2CC[C@@H](C(F)(F)F)CO2)[C@H]3C(C)C)cc1 (single isomer, unassigned) [Compound 21]",< 100,> 1000,
"CCS(=O)(=O)c1ccc([C@H](CO)NC(=O)c2cnc3c(c2)CN(C)[C@@H]3Cc2ccccc2)cc1 (single isomer, unassigned) [Compound 34]",100 to 1000,,
"CCS(=O)(=O)c1ccc([C@H](NC(=O)c2cnc3c(c2)CN(C[C@H]2CC[C@H](C(F)(F)F)CC2)[C@H]3C(C)C)[C@H](C)O)cc1 (single isomer, unassigned) [Compound 39]",< 100,< 100,inhibition at 3 µM [3]: 32.7%
"CCS(=O)(=O)c1ccc([C@@H](NC(=O)c2cnc3c(c2)CN(C[C@H]2CC[C@H](C(F)(F)F)CC2)[C@H]3C(C)C)[C@@H](C)O)cc1 (single isomer, unassigned) [Compound 42]",< 100,< 100,inhibition at 3 µM [3]: 63.9%
CCS(=O)(=O)c1ccc([C@H](CO)NC(=O)c2cnc3c(c2)CN(C[C@@H]2CC[C@@H](C(F)(F)F)OC2)[C@H]3C(C)C)nc1 [Compound 1],< 100,< 100,IC50 (IL-17A production): < 100 nM
CCS(=O)(=O)c1ccc([C@H](CO)NC(=O)c2cnc3c(c2)CN(C[C@@H]2CC[C@@H](C(F)(F)F)OC2)[C@H]3C(C)C)cc1 [Compound 2],< 100,< 100,
CCS(=O)(=O)c1ccc([C@H](CO)NC(=O)c2cnc3c(c2)CN(C[C@H]2CC[C@H](C(F)(F)F)OC2)[C@H]3C(C)C)nc1 [Compound 4],,< 100,Ki [1]: < 100 nM; IC50 (IL-17A production): < 100 nM
CCS(=O)(=O)c1ccc(C(C)(CO)NC(=O)c2cnc3c(c2)CN(C[C@H]2CC[C@H](C(F)(F)F)CC2)[C@H]3C(C)C)cc1 (some centres unmarked) [Compound 7],< 100,,
CCS(=O)(=O)c1ccc([C@H](CO)NC(=O)c2cnc3c(c2)CN(C[C@@H]2CC[C@@H](C(F)(F)F)CO2)[C@H]3C(C)C)cc1 [Compound 14],< 100,< 100,
CCS(=O)(=O)c1ccc([C@H](CO)NC(=O)c2cnc3c(c2)CN(CC(F)(F)F)[C@@H]3Cc2ccccc2)cc1 [Compound 19],< 100,,
CCS(=O)(=O)c1ccc([C@H](CO)NC(=O)c2cnc3c(c2)CN(CC(F)(F)F)[C@H]3Cc2ccccc2)cc1 [Compound 22],< 100,,
CCS(=O)(=O)c1ccc([C@H](CO)NC(=O)c2cnc3c(c2)CN(C[C@H]2CC[C@H](C(F)(F)F)CC2)C3C(F)(F)F)cc1 (some centres unmarked) [Compound 23],< 100,,
CC[C@H]1c2ncc(C(=O)N[C@@H](CO)c3ccc(S(C)(=O)=O)cc3)cc2CN1C[C@H]1CC[C@H](C(F)(F)F)CC1 [Compound 24],< 100,< 100,
CCS(=O)(=O)c1ccc([C@H](CO)NC(=O)c2cnc3c(c2)CN(C[C@H]2CC[C@H](C(F)(F)F)CC2)[C@H]3C)cc1 [Compound 26],< 100,,
CCS(=O)(=O)c1ccc([C@H](CO)NC(=O)c2cnc3c(c2)CN(C[C@H]2CC[C@H](C(F)(F)F)CC2)[C@H]3CC2CCOCC2)cc1 [Compound 27],< 100,,
CCS(=O)(=O)c1ccc([C@H](CO)NC(=O)c2cnc3c(c2)CN(C[C@H]2CC[C@H](C(F)(F)F)CC2)[C@@H]3C)cc1 [Compound 28],> 1000,,
CCS(=O)(=O)c1ccc([C@@H](NC(=O)c2cnc3c(c2)CN(C[C@H]2CC[C@H](C(F)(F)F)CC2)[C@H]3C(C)C)[C@@H](C)O)cc1 [Compound 29],100 to 1000,,
CCS(=O)(=O)c1ccc([C@@H](NC(=O)c2cnc3c(c2)CN(C[C@H]2CC[C@H](C(F)(F)F)CC2)[C@H]3C(C)C)[C@@H](C)O)cc1 [Compound 30],100 to 1000,,
CCS(=O)(=O)c1ccc([C@H](CO)NC(=O)c2cnc3c(c2)CN(C[C@H]2CC[C@H](C(F)(F)F)CC2)[C@H]3C2CCOCC2)cc1 [Compound 31],< 100,,
CC[C@H]1c2ncc(C(=O)N[C@@H](CO)c3ccc(S(=O)(=O)CC)cn3)cc2CN1C[C@H]1CC[C@H](C(F)(F)F)CC1 [Compound 33],,,inhibition at 3 µM [3]: 29.1%
CCS(=O)(=O)c1ccc([C@H](CO)NC(=O)c2cnc3c(c2)CN(C[C@H]2CC[C@H](C(F)(F)F)CC2)[C@H]3Cc2ccccc2)cc1 [Compound 37],< 100,,
"CC[C@H]1c2ncc(C(=O)N[C@@H](CO)c3ccc(S(=O)(=O)CC)cc3)cc2CN1C[C@H]1CC[C@H](C(F)(F)F)CC1 [Compound 41, (S)-7-ethyl-N—((R)-1-(4-(ethylsulfonyl)phenyl)-2-hydroxyethyl)-6-((trans-4-(trifluoromethyl)cyclohexyl)methyl)-6,7-dihydro-5H-pyrrolo[3,4-b]pyridine-3-carboxamide]",,,inhibition at 3 µM [3]: 7.7%
CCO[C@H]1CC[C@H](CN2Cc3cc(C(=O)N[C@@H](CO)c4ccc(S(=O)(=O)CC)cc4)cnc3[C@@H]2C(C)C)CC1 [Compound 43],< 100,,
CCS(=O)(=O)c1ccc([C@@H](CO)NC(=O)c2cnc3c(c2)CN(C[C@H]2CC[C@H](C(F)(F)F)CC2)[C@H]3C(C)C)nc1 [Compound 44],,,inhibition at 3 µM [3]: 28.6%
"CCS(=O)(=O)c1ccc([C@H](CO)NC(=O)c2cnc3c(c2)CN(C[C@H]2CC[C@H](C(F)(F)F)CC2)[C@H]3C(C)C)cc1 [Compound 46, (S)—N—((R)-1-(4-(ethylsulfonyl)phenyl)-2-hydroxyethyl)-7-isopropyl-6-((trans-4-(trifluoromethyl)cyclohexyl)methyl)-6,7-dihydro-5H-pyrrolo[3,4-b]pyridine-3-carboxamide]",< 100,,inhibition at 3 µM [3]: 44.3%
CCS(=O)(=O)c1ccc([C@@H](CO)NC(=O)c2cnc3c(c2)CN(C[C@H]2CC[C@H](C(F)(F)F)CC2)[C@H]3C(C)C)cc1 [Compound 47],< 100,,
